Experiments:
[1] = target: T1, GFP-Inka1:Flag-PAK4cat crystal (Homo sapiens, UniProt O96013); test: Live cell imaging of GFP-Inka1:PAK4cat crystal growth; type: cell-based; details: 5 μM, FIG. 6d
T1 construct: the kinase catalytic domain of human PAK4 (278-591); expressed in transfected cells
Method: The cells were plated at 50% confluence glass cover slips overnight: plasmid transfection used GFP-iBox-Pak4cat and FLAG-iBox-Pak4cat constructs at a ratio of 4:1 to promote crystal nucleation. The cover slips were transferred to a Chamlide magnetic chamber (Live cell instruments, Seoul, Korea) with 5% CO2 at 37° C. for live imaging on an Zeiss Axiovert 200M Live Cell Imaging with a 10× objective. We imaged multiple chosen regions for 8 hours at 6 min intervals. To measure crystal growth rate, we used instead a Nikon Eclipse Ti microscope equipped with spinning disk confocal attachment (Yokogawa CSU-22 module) to avoid photo-damage. The cells were imaged at 60×1.4 NA objective at 2 min intervals. For SIM and confocal imaging, cells were fixed in non-hardening mounting media (Vectashield). The slides were imaged by Delta vision OMX SIM with a 100×1.4 NA objective. Confocal imaging used an Olympus FV1000 upright system with 60×1.42NA objective. The 3D stacks were analyzed by IMARIS software.

[2] = target: T2, PAK4cat (Homo sapiens, UniProt O96013); test: In vitro kinase assay, phosphorylation of GST-Raf13 by PAK4cat; type: biochemical; details: FIG. 1c
T2 construct: PAK1 (1-545) and PAK4 (286-591), respectively; 6His (N); made in house; host or cells: Escherichia coli BL21-CodonPlus(DE3)
T2 sequence (O96013 286-591): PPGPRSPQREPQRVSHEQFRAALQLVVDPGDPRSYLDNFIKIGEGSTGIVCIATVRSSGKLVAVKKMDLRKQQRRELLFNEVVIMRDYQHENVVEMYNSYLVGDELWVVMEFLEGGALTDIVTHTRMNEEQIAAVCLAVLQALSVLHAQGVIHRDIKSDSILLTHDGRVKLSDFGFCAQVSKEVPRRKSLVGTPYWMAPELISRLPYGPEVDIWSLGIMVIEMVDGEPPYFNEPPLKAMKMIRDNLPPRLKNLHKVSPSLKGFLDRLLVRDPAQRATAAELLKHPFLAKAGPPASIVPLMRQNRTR
Method: (§1) Purified PAK1 or PAK4 (50 nM in 25-50 μl) were incubated with 10 μM GST-Raf1S338 peptide in 10 μM ATP (2 μCi of γ32P ATP) of kinase buffer (25 mM Hepes, pH 7.3, 0.1% Triton-X100, 50 mM KCl, 10 mM MgCl2, 1 mM DTT) at 30° C. for 20 min. Samples were analysed by SDS-polyacrylamide gel electrophoresis, or adsorption of the GST substrate mix onto PVDF membranes, followed by extensive washing to remove free γ32P-ATP. The synthetic peptides of 95% purity, as determined by HPLC and MS analyses (GenScript), were soluble in aqueous PBS. Stock solutions (10 mM) were quantified via calculated extinction coefficients and absorbance measurements at 280 nm and stored at −80° C. The diluted peptides were incubated at the indicated concentrations with the kinase on ice (10 min) before addition of γ32P ATP and subsequent incubation at 30° C. The synthetic peptide array (Jerini Biotools) was phosphorylated in situ as described previously.

[3] = target: PAK1 (Homo sapiens, UniProt Q13153); test: In vitro kinase assay, phosphorylation of GST-Raf13 by 6His-PAK1 (activated); type: biochemical; details: FIG. 1c
Sequence of PAK1 (Q13153 whole entry): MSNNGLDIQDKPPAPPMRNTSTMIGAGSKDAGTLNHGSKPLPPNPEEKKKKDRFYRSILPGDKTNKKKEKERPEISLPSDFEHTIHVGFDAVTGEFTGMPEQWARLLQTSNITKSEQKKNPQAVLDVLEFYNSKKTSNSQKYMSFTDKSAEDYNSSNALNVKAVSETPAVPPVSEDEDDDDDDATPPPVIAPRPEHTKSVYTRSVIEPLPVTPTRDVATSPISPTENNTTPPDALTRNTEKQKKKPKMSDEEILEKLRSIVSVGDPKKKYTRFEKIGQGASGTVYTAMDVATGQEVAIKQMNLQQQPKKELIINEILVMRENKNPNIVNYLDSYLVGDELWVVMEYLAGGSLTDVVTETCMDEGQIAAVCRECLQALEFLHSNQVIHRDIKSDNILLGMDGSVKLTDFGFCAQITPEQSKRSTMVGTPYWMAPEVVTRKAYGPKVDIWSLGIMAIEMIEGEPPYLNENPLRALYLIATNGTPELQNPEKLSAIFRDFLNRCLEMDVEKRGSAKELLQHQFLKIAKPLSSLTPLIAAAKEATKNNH
Method: as §1

T1 sequence (O96013 278-591): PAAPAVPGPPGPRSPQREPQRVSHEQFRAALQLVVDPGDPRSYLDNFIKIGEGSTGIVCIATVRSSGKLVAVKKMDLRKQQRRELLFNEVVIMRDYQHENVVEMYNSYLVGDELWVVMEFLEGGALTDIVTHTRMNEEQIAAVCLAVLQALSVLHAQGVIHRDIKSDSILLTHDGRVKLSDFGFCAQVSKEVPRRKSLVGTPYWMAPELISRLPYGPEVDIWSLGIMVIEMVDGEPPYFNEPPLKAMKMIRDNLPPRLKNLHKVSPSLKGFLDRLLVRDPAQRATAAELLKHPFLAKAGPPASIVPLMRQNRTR

Row | Compound | GFP signal of co-crystals during the elongation phase ([1]; GFP-Inka1:HA-PAK4cat co-crystals) | crystal growth after drug addition ([1]; growing GFP-Inka1:Flag-PAK4cat crystal) | PAK4cat inhibition in vitro [2] | effect on PAK1 [3]
1 | Cc1nc(Nc2[nH]nc3c2CN(C(=O)N[C@H](CN(C)C)c2ccccc2)C3(C)C)c2sccc2n1 [PF-03758309] | depleted of GFP signal | slowed | – | –
2 | GST-iBox: recombinant 38 amino acid 'Inka box' (Inka1 residues 166-203) as GST fusion | – | – | potent | does not affect

Reference: patent publication US10822723B2, “Fusion protein crystal comprising a moiety” (Agency for Science, Technology and Research, priority 2015, dated 2020)
